{
  "source": "ChEMBL document CHEMBL5291721",
  "about": "“A preclinical secondary pharmacology resource illuminates target-adverse drug reaction associations of marketed drugs” (Nat Commun, 2023); note: assay procedure not described here",
  "key": {"[1]": {"target": "Rod cGMP-specific 3',5'-cyclic phosphodiesterase subunit alpha (Homo sapiens, UniProt P16499)", "sequence (P16499 whole entry)": "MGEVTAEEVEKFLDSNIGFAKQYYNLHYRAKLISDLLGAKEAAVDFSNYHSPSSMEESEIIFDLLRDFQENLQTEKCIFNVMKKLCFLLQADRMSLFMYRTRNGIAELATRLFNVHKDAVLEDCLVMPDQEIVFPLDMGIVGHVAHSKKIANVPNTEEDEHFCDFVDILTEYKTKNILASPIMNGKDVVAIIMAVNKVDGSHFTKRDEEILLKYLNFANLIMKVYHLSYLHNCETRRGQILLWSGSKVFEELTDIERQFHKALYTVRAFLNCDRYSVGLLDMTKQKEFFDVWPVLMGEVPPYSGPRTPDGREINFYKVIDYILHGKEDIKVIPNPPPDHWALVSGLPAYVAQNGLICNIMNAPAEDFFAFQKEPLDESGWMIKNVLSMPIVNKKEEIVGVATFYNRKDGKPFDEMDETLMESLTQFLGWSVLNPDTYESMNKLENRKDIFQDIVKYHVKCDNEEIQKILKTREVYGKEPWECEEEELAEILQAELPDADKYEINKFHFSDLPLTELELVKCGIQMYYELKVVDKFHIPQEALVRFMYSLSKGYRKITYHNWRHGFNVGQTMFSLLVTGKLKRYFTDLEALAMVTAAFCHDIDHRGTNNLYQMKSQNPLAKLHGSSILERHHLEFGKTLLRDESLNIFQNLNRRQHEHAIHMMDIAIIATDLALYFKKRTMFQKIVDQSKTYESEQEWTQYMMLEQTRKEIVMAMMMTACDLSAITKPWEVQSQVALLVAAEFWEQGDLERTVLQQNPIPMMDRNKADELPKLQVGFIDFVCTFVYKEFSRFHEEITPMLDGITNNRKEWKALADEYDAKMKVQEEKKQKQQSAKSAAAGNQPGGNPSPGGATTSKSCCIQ", "type": "functional"}, "[2]": {"target": "T1, Muscarinic acetylcholine receptor M4 (Homo sapiens, UniProt P08173)", "T1 sequence (P08173 whole entry)": "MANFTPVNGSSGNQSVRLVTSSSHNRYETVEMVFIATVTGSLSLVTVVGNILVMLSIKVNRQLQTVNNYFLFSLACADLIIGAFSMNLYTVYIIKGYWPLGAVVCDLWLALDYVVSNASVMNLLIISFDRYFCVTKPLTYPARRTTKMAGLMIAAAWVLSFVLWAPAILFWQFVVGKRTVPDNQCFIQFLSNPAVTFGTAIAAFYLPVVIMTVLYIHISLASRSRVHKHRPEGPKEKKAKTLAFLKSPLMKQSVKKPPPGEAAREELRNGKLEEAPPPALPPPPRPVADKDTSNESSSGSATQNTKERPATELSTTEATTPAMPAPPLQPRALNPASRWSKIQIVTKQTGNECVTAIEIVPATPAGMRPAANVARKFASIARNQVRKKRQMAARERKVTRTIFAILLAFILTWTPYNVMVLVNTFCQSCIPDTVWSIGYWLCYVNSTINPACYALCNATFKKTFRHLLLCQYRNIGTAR"}, "[3]": {"target": "5-hydroxytryptamine receptor 5A (Homo sapiens, UniProt P47898)", "sequence (P47898 whole entry)": "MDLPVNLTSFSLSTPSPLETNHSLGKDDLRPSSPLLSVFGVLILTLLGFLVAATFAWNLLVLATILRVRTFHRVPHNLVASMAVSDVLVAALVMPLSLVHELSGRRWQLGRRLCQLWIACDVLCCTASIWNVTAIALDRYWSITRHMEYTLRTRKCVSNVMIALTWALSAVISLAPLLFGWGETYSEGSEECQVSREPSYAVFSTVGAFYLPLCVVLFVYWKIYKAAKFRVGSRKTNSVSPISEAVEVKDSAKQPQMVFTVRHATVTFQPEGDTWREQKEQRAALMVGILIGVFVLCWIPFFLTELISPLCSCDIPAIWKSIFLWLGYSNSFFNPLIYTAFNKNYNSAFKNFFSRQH"}, "[4]": {"target": "T2, Muscarinic acetylcholine receptor M5 (Homo sapiens, UniProt P08912)", "T2 sequence (P08912 whole entry)": "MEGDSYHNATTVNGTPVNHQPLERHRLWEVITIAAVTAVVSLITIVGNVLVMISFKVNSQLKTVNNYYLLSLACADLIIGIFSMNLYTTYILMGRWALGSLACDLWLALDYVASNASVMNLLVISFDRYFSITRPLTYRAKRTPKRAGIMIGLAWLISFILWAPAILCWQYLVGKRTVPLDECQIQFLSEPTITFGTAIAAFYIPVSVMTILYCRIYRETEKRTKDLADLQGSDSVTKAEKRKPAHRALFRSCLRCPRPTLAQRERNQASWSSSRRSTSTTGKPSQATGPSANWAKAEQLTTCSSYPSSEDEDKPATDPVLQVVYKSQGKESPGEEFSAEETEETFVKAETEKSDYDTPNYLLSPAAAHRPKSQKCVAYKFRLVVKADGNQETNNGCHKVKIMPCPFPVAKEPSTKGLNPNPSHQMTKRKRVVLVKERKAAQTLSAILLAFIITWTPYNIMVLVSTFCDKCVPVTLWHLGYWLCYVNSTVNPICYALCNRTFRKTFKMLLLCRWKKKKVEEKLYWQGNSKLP"}, "[5]": {"target": "D(1B) dopamine receptor (Homo sapiens, UniProt P21918)", "sequence (P21918 whole entry)": "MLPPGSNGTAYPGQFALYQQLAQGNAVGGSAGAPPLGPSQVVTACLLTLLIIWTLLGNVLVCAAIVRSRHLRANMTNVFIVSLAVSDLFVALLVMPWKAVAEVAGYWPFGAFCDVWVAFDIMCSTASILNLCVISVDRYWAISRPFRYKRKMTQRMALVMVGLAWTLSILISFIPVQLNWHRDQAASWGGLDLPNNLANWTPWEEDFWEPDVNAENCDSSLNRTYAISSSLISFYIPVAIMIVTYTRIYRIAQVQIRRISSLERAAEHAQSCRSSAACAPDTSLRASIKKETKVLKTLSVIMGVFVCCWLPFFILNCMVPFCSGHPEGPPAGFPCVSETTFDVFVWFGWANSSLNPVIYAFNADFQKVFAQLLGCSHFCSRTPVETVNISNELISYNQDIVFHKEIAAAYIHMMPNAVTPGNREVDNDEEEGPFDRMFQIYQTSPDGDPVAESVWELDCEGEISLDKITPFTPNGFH"}, "[6]": {"target": "T3, Androgen receptor (Rattus norvegicus, UniProt P15207)", "T3 sequence (P15207 whole entry)": "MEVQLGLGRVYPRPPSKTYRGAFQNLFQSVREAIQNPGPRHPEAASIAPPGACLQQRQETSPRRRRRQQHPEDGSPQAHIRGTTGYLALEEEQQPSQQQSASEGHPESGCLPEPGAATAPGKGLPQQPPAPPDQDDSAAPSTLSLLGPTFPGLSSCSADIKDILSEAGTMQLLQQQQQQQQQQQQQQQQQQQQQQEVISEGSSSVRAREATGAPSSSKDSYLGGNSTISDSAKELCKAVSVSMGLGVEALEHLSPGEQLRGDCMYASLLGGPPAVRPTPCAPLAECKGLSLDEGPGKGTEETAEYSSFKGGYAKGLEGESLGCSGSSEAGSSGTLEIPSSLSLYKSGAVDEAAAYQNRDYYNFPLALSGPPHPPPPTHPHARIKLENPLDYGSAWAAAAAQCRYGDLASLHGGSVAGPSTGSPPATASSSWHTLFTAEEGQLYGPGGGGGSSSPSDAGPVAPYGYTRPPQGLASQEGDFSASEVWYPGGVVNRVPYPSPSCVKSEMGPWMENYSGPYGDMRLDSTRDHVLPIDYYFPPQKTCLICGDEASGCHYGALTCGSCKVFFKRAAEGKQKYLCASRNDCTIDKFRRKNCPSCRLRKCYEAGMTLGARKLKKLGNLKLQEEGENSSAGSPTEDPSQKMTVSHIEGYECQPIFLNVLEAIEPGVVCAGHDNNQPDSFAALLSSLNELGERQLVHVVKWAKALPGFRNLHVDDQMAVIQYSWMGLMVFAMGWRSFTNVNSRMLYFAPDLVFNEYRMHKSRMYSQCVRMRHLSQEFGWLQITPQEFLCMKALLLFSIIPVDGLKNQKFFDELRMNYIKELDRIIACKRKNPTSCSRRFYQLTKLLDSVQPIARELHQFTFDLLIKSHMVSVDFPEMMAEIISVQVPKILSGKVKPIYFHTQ"}, "[7]": {"target": "Voltage-dependent L-type calcium channel subunit alpha-1C (Homo sapiens, UniProt Q13936)", "sequence (Q13936 whole entry)": "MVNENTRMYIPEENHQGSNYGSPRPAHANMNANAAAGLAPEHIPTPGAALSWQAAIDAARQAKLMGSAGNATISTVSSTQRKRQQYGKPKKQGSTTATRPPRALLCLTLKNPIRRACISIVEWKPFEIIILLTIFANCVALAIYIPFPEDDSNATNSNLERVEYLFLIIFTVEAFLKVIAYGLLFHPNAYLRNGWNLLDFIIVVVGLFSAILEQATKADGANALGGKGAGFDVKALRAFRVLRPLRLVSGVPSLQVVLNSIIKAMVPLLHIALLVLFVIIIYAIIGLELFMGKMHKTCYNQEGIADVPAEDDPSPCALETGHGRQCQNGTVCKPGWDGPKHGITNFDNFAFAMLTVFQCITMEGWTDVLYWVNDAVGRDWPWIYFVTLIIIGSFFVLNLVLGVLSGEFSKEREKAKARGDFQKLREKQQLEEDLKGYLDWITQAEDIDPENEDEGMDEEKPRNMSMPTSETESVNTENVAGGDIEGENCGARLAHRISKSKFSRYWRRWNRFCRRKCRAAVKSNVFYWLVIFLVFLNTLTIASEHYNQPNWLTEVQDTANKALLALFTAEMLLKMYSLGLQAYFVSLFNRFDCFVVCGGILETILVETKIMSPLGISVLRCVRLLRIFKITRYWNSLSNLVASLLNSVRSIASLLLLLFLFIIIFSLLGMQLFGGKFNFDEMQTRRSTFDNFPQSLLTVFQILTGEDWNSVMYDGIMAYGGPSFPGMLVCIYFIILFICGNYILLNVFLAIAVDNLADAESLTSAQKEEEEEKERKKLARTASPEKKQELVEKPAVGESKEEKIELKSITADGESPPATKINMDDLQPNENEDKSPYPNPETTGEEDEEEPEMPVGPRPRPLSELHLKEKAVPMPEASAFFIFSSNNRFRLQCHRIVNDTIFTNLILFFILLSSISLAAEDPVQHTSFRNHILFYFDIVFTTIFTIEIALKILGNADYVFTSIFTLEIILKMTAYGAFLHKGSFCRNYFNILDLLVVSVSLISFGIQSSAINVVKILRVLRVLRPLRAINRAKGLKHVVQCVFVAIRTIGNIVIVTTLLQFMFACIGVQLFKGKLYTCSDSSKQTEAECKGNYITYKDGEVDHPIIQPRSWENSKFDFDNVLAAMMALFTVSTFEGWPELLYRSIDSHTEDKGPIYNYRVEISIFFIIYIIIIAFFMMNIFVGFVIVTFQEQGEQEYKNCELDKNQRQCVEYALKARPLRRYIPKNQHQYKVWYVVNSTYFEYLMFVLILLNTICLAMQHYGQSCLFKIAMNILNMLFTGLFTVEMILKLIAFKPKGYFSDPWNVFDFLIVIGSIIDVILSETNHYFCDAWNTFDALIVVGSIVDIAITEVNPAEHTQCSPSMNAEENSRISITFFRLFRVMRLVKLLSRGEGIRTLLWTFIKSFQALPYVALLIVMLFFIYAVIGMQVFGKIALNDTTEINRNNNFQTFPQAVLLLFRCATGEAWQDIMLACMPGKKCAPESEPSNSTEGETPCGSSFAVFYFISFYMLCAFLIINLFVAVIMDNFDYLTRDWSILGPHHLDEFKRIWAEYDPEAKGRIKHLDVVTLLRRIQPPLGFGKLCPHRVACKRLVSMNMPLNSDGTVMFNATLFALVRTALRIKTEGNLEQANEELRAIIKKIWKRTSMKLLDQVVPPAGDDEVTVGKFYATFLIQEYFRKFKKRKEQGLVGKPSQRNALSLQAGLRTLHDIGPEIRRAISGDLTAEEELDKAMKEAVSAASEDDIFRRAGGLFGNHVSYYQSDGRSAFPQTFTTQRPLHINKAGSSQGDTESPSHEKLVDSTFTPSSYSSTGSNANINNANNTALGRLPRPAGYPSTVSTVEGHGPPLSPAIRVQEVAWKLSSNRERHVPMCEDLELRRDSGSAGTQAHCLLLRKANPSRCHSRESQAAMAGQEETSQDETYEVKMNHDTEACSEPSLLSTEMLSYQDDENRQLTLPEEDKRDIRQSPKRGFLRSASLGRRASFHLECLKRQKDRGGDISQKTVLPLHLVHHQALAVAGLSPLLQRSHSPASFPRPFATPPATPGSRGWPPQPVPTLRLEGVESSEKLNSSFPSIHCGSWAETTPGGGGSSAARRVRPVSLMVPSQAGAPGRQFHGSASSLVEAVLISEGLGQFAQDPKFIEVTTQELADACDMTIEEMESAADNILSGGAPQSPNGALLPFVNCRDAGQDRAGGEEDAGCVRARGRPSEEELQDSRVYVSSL", "type": "functional, cell-based"}, "[8]": {"target": "T4, Muscarinic acetylcholine receptor M1 (Homo sapiens, UniProt P11229)", "T4 sequence (P11229 whole entry)": "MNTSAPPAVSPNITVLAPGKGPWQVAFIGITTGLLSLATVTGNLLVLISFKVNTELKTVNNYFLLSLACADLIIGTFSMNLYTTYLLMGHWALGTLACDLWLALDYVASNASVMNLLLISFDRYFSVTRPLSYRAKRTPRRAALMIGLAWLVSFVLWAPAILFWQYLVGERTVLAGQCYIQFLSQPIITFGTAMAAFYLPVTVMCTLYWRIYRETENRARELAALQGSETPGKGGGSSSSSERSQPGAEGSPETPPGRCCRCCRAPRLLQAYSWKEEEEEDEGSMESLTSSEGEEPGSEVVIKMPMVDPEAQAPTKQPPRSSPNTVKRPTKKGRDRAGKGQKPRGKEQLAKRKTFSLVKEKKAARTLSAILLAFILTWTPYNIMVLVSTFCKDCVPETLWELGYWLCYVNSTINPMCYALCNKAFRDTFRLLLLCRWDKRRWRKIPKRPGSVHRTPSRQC"}, "[9]": {"target": "T5, Nuclear receptor subfamily 1 group I member 3 (Homo sapiens, UniProt Q14994)", "T5 sequence (Q14994 whole entry)": "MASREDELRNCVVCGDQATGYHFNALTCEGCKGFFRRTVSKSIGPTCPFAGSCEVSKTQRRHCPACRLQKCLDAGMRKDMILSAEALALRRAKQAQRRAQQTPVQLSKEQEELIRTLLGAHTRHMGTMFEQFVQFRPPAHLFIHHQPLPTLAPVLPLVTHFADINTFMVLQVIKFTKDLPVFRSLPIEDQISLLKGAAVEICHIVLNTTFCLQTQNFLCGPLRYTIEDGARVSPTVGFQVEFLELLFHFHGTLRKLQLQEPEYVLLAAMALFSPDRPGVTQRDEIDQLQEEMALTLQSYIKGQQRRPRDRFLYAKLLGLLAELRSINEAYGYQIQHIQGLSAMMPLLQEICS", "type": "functional"}},
  "data": [
    {"smiles": "CCOc1nc2cccc(C(=O)O)c2n1Cc1ccc(-c2ccccc2-c2nnn[nH]2)cc1", "values": [
      {"measurement": "AC50", "setting": "[1]", "value": "> 10", "unit": "µM"},
      {"measurement": "AC50", "setting": "[2]", "value": "> 10", "unit": "µM"},
      {"measurement": "AC50", "setting": "[3]", "value": "> 10", "unit": "µM"},
      {"measurement": "AC50", "setting": "[4]", "value": "> 10", "unit": "µM"},
      {"measurement": "AC50", "setting": "[5]", "value": "> 10", "unit": "µM"},
      {"measurement": "AC50", "setting": "[6]", "value": "> 30", "unit": "µM"}
    ]},
    {"smiles": "CCCc1nc2c(C)cc(-c3nc4ccccc4n3C)cc2n1Cc1ccc(-c2ccccc2C(=O)O)cc1", "values": [
      {"measurement": "AC50", "setting": "[4]", "value": "> 10", "unit": "µM"}
    ]},
    {"smiles": "CCOc1cc([C@@H](CS(C)(=O)=O)N2C(=O)c3cccc(NC(C)=O)c3C2=O)ccc1OC", "values": [
      {"measurement": "AC50", "setting": "[7]", "value": "> 50", "unit": "µM"}
    ]},
    {"smiles": "CC=CC1=C(C(=O)O)N2C(=O)[C@@H](NC(=O)[C@H](N)c3ccc(O)cc3)[C@H]2SC1", "note": "[CEFPROZIL]", "values": [
      {"measurement": "AC50", "setting": "[6]", "value": "> 30", "unit": "µM"}
    ]},
    {"smiles": "CC(C)NC(=N)NC(=N)Nc1ccc(Cl)c(Cl)c1", "note": "[CHLORPROGUANIL]", "values": [
      {"measurement": "AC50", "setting": "[8]", "value": "> 30", "unit": "µM"}
    ]},
    {"smiles": "Cc1nc(Nc2ncc(C(=O)Nc3c(C)cccc3Cl)s2)cc(N2CCN(CCO)CC2)n1", "note": "[DASATINIB]", "values": [
      {"measurement": "AC50", "setting": "[2]", "value": "> 10", "unit": "µM"},
      {"measurement": "AC50", "setting": "[4]", "value": "> 10", "unit": "µM"}
    ]},
    {"smiles": "O=C(O)Cc1ccccc1Nc1c(Cl)cccc1Cl", "note": "[DICLOFENAC]", "values": [
      {"measurement": "AC50", "setting": "[1]", "value": "> 10", "unit": "µM"},
      {"measurement": "AC50", "setting": "[9]", "value": 23, "unit": "µM"},
      {"measurement": "AC50", "setting": "[2]", "value": "> 10", "unit": "µM"},
      {"measurement": "AC50", "setting": "[3]", "value": "> 10", "unit": "µM"},
      {"measurement": "AC50", "setting": "[4]", "value": "> 10", "unit": "µM"},
      {"measurement": "AC50", "setting": "[5]", "value": "> 10", "unit": "µM"},
      {"measurement": "AC50", "setting": "[6]", "value": "> 30", "unit": "µM"}
    ]},
    {"smiles": "CN[C@@H]1[C@H](O[C@H]2[C@H](O[C@H]3[C@H](O)[C@@H](O)[C@H](NC(=N)N)[C@@H](O)[C@@H]3NC(=N)N)O[C@@H](C)[C@]2(O)CO)O[C@@H](CO)[C@H](O)[C@H]1O", "note": "[DIHYDROSTREPTOMYCIN]", "values": [
      {"measurement": "AC50", "setting": "[8]", "value": "> 30", "unit": "µM"}
    ]},
    {"smiles": "Cc1ccc(C)c(OCCCC(C)(C)C(=O)O)c1", "note": "[GEMFIBROZIL]", "values": [
      {"measurement": "AC50", "setting": "[6]", "value": "> 30", "unit": "µM"}
    ]},
    {"smiles": "C#C[C@]1(O)C=C[C@H]2[C@@H]3CCC4=CC(=O)CC[C@@H]4[C@H]3CC[C@@]21CC", "note": "[GESTODENE]", "values": [
      {"measurement": "AC50", "setting": "[8]", "value": "> 30", "unit": "µM"}
    ]},
    {"smiles": "CCCCCCCN(CC)CCCC(O)c1ccc(NS(C)(=O)=O)cc1", "note": "(stereo not drawn) [IBUTILIDE]", "values": [
      {"measurement": "AC50", "setting": "[7]", "value": "> 30", "unit": "µM"}
    ]},
    {"smiles": "CNC(=C[N+](=O)[O-])NCCSCc1csc(CN(C)C)n1", "note": "[NIZATIDINE]", "values": [
      {"measurement": "AC50", "setting": "[6]", "value": "> 10", "unit": "µM"}
    ]},
    {"smiles": "CN(CCOc1ccc(CC2SC(=O)NC2=O)cc1)c1ccccn1", "note": "(stereo not drawn) [ROSIGLITAZONE]", "values": [
      {"measurement": "AC50", "setting": "[9]", "value": 18, "unit": "µM"},
      {"measurement": "AC50", "setting": "[4]", "value": "> 10", "unit": "µM"}
    ]},
    {"smiles": "COc1cc(C(=O)NS(=O)(=O)c2ccccc2C)ccc1Cc1cn(C)c2ccc(NC(=O)OC3CCCC3)cc12", "note": "[ZAFIRLUKAST]", "values": [
      {"measurement": "AC50", "setting": "[9]", "value": 4, "unit": "µM"}
    ]},
    {"smiles": "O=C1Cc2cc(CCN3CCN(c4nsc5ccccc45)CC3)c(Cl)cc2N1", "note": "[ZIPRASIDONE]", "values": [
      {"measurement": "AC50", "setting": "[7]", "value": "> 50", "unit": "µM"}
    ]}
  ]
}
